From ChEMBL document CHEMBL1155183, “Synthesis and SAR of 1,4,5,6-tetrahydropyridazines as potent cannabinoid CB1 receptor antagonists” (Bioorg Med Chem Lett, 2009)

Experiments:
Homo sapiens = species: Homo sapiens; assay: Selectivity ratio of Ki for human CB1 receptor to Ki for human CB2 receptor
Cannabinoid receptor 1 [1] = molecular target: T1, Cannabinoid receptor 1 (Homo sapiens, UniProt P21554); assay: Antagonist activity at human CB1 receptor expressed in CHO cells assessed as inhibition of CP-55940-induced [3H]arachidonic acid release; assay type: functional, cell-based; conditions: read-out: pA2 (converted)
T1 sequence (P21554 whole entry): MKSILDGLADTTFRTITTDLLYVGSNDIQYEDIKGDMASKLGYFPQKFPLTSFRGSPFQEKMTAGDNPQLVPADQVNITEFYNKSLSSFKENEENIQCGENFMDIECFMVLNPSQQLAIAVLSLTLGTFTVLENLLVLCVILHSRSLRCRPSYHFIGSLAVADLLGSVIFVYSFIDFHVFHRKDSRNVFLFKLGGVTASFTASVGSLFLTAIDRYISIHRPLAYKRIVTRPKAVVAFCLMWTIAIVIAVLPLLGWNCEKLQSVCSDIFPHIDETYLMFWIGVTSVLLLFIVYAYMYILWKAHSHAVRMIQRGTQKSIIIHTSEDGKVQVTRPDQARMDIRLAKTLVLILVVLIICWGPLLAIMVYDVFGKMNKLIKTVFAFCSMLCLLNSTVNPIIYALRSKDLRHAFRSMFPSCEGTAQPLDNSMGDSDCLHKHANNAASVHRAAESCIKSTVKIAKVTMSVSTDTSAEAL

Cannabinoid receptor 1 [2] = molecular target: T1, Cannabinoid receptor 1; assay: Displacement of [3H]CP-55940 from human CB1 receptor expressed in CHO cells; assay type: cell-based
Cannabinoid receptor 2 = Cannabinoid receptor 2 (Homo sapiens, UniProt P34972); assay: Displacement of [3H]CP-55940 from human CB2 receptor expressed in CHO cells; assay type: cell-based
Chain of Cannabinoid receptor 2 (P34972 whole entry): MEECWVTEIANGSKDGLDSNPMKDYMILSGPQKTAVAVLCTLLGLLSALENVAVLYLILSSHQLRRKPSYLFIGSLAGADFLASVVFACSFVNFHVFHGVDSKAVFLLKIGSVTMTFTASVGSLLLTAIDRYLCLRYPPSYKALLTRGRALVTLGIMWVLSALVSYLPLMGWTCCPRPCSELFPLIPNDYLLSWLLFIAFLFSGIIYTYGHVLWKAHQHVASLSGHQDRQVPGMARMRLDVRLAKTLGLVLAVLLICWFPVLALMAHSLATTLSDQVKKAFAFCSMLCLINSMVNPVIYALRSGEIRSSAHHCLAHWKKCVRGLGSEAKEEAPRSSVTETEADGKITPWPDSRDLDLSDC

Row | SMILES | Ratio Ki (Homo sapiens) | Kb (Cannabinoid receptor 1 [1]) [nM] | Ki (Cannabinoid receptor 1 [2]) [nM] | Ki (Cannabinoid receptor 2) [nM]
1 | CN/C(=N\S(=O)(=O)N1CCC(F)(F)CC1)N1CCC(c2ccccc2)C(c2ccc(Cl)cc2)=N1 (stereo not given) | 5 | – | – | –
2 | CNC(=NS(=O)(=O)N1CCCCC1)N1CCC(c2ccccc2)C(c2ccc(Cl)cc2)=N1 (stereo not given) | – | 2 | 74 | 571
3 | CNC(=NS(=O)(=O)N1CCC(F)(F)CC1)N1CCC(c2ccccc2)C(c2ccc(Cl)cc2)=N1 (stereo not given) | – | 1 | 47 | 247
4 | CN=C(NS(=O)(=O)N1CCC(F)(F)CC1)N1CC(c2ccccc2)C(c2ccc(Cl)cc2)=N1 (stereo not given) | – | 0.631 | 12.2 | 219
5 | CN/C(=N\S(=O)(=O)c1ccc(Cl)cc1)N1CCC(c2ccccc2)C(c2ccc(Cl)cc2)=N1 (stereo not given) | 5 | 1 | 43 | 318
6 | CN/C(=N\S(=O)(=O)N1CCCCC1)N1CCC(c2ccccc2)C(c2ccc(Cl)cc2)=N1 (stereo not given) | 5 | – | – | –
